Assay results from patent US20240122867A1, “CORONAL PROTEIN-COATED NANOPARTICLES AND USES THEREOF” (UNIVERSITY OF CENTRAL FLORIDA RESEARCH FOUNDATION, INC., priority 2021, published 2024).

System: MDA-MB-231 cells
Test: cells
Type: cell-based, human

CC(=O)O[C@H]1C(=O)[C@@]2(C)[C@H]([C@H](OC(=O)c3ccccc3)[C@]3(O)C[C@H](OC(=O)[C@H](O)[C@@H](NC(=O)c4ccccc4)c4ccccc4)C(C)=C1C3(C)C)[C@]1(OC(C)=O)CO[C@@H]1C[C@@H]2O [taxol, paclitaxel]
IC50 (Homo sapiens, MDA-MB-231, read-out: IC50 dose): ~50 nM | reduction of MDA-MB-231 viability (free taxol, 43 μg dose, 24 h): ~50%
